{
  "source": "patent US12281329B2",
  "about": "“Compositions and methods for immune cell modulation in adoptive immunotherapies” (Fate Therapeutics, Inc., priority 2016, dated 2025)",
  "key": {"[1]": {"tested_on": "KG-1 cells", "assay": "NK cell cytotoxicity assay, KG-1 target cells", "assay_type": "cell-based, human", "settings": "1 μM STING agonist added to 7 day 10 ng/mL IL-15 + 5 μM CHIR99021 culture; 4 hours", "experimental": "(§1) NK Cell Cytotoxicity Assay: Cytotoxicity was determined using a flow cytometry based method based on a previously published method (Kim, et al. J Immunol Methods. 2007 Aug. 31; 325(1-2): 51-66). NK cells were co-cultured with e450-proliferation dye-labelled targets for 4 hours. CellEvent™ Caspase-3/7 Green Flow Cytometry Assay Kit (Lifer Technologies) was used to assay for cell death among target cells, and samples were read on a BD LSRFortessa cytometer. Killing of SKOV-3 targets was quantified using the Incucyte Zoom instrument. SKOV-3 cells were transiently transduced with NucLight-Red BacMam reagent (Essen Biosciences) and co-cultured with the indicated NK cell populations for 74 hours, with images taken on two hour intervals. Caspase 3/7 activity was monitored to indicate target cells undergoing apoptosis using the CellEvent™ Caspase-3/7 Green Detection Reagent. The number of target cells was normalized to SKOV-3 cells cultured alone, and targets undergoing apoptosis were quantified based on caspase 3/7 activity.\n(§2) The ability of STING agonist to enhance cytotoxicity of GSK3i multiday modulated NK cells was assessed using in vitro killing assays. […]"}, "[2]": {"tested_on": "NK cells", "assay": "7 day NK culture with IL15, GSK3i and/or STING agonist: phenotype by flow cytometry", "assay_type": "cell-based, human", "experimental": "CD3/CD19 depleted PBMC were cultured for 7 days in the presence of 10 ng/ml IL15 and (1) DMSO (vehicle); (2) […] GSK3i (CHIR99021); (3) 1 μM STING agonist (ML RR-S2 CDA); or (4) […] GSK3i+1 μM STING agonist. On day 7, NK cell function and phenotype was assessed by intracellular cytokine staining, cytotoxicity assays, and flow cytometry. […] The frequency of CD107a+ NK cells after incubation with K562 cells was increased for cells cultured for 7 days with IL-15+GSK3i+STING agonist compared to cells cultured with IL-15+GSK3i only (FIG. 16C). Increased cell surface CD107a expression is associated with enhanced degranulation and cytotoxic potential of NK cells in the presence of STING agonist in combination with GSK3i.\nNatural Killer (NK) cells recognize and destroy tumors and virus-infected cells in an antibody-independent manner. The regulation of NK cells is mediated by activating and inhibiting receptors on the NK cell surface. One important family of activating receptors is the natural cytotoxicity receptors (NCRs) which include NKp30, NKp44 and NKp46. The NCRs initiate tumor targeting by recognition of their specific ligands on cancer cells."}, "[3]": {"tested_on": "Nalm6 cells", "assay": "NK cell cytotoxicity assay, Nalm6 target cells", "assay_type": "cell-based, human", "settings": "1 μM STING agonist added to 7 day 10 ng/mL IL-15 + 5 μM CHIR99021 culture; 4 hours", "experimental": "as §1, §2"}, "[4]": {"tested_on": "K562 cells", "assay": "NK cell cytotoxicity assay, K562 target cells", "assay_type": "cell-based", "settings": "1 μM STING agonist added to 7 day 10 ng/mL IL-15 + 5 μM CHIR99021 culture; 4 hours", "experimental": "as §1\nThe ability of GSK3 inhibition to enhance cytotoxicity of NK cells isolated directly from donors was assessed using in vitro killing assays. […] depleted PBMC population was treated overnight with 10 ng/mL IL-15 only (primed), or a 7 day culture combination of 10 ng/mL IL-15 and 5 μM CHIR99021. The target cells for the killing assays included K562 cells, CD20+ Raji cells, HER2+ SKOV3 cells and HER2+A549 cells. The E:T (Effector:Target) ratio applied to each assay ranged from 0.1, 0.5, 1, 5 to 10. After the target cells were incubated with the differently treated NK cells for 4 hours, the respective percentage of specific killing (target cell lysis) was calculated. […] Raji cells are less prone to NK mediated cytotoxicity.\nas §2"}},
  "data": [
    {"compound": "Nc1ncnc2c1ncn2[C@@H]1O[C@@H]2COP(O)(=S)O[C@@H]3C(O)[C@@H](COP(O)(=S)O[C@H]2[C@H]1O)O[C@H]3n1cnc2c(N)ncnc21", "note": "(stereo partly drawn) [ML RR-S2 CDA]", "values": [
      {"measurement": "cytotoxicity (specific killing) against KG-1 cells", "setting": "[1]", "value": "enhanced"},
      {"measurement": "effect on adaptive NK phenotype and total NK number", "setting": "[2]; 7 days, 10 ng/ml IL15, 1 μM STING agonist", "value": "limited effect"},
      {"measurement": "total CD57+NK number", "setting": "[2]; FIG. 15A", "value": "limited effect"},
      {"measurement": "CD57+NKG2C+NK phenotype", "setting": "[2]; FIG. 15B", "value": "limited effect"},
      {"measurement": "cytotoxicity (specific killing) against Nalm6 cells", "setting": "[3]", "value": "enhanced"},
      {"measurement": "cytotoxicity (specific killing) against K562 cells", "setting": "[4]", "value": "enhanced"}
    ]}
  ]
}
